In PMC12057336 (Antimicrobial Agents and Chemotherapy, 2025):
Read-outs that look alike come from different tables or passages of the source.

Key:
[1] = tested on: OCT2; details: cited from earlier work
[2] = cited from earlier work; for median plasma concentration: standard doses
[3] = Tissue distribution after i.g. or i.v. linezolid in control, CCl4-induced and 5/6 Nx rats; type: in vivo, rat; details: for Kp at 0.5 h / Kp at 1 h / Kp at 4 h: rat
Description: These two groups were further divided into the following three subgroups (n = 4): control rats, CCl4-induced rats, and 5/6 Nx rats. […] The rats were euthanized immediately after blood sampling. The brain, heart, lungs, liver, kidneys, and small intestine were collected. The collected tissues were washed and homogenized in normal saline (three-fold volume of each sample weight) using a multi-sample tissue grinder (Tissuelyser-48L; Shanghai Jingxin Industrial Development Co. Ltd., Shanghai, China). After centrifugation of the homogenate samples at 12,000 × g for 10 min at 4°C, the supernatants were stored at −80°C.
The flow rate was 1.0 mL/min.
Then, 5 µL of the supernatant was analyzed.

[4] = tested on: MAT1; design: method as in PMID 27645247, PMID 26976869, PMID 27550354; details: cited from earlier work
[5] = tested on: OAT1; details: cited from earlier work
[6] = tested on: MATE2-K; details: cited from earlier work
[7] = thrombocytopenic patients with moderate renal failure
[8] = brain, iv, 25 mg/kg, i.v. 25 mg/kg linezolid, 5/6 Nx rats, read-out: Tissue/plasma concentration ratio, Brain
[9] = brain, iv, 25 mg/kg, i.v. 25 mg/kg linezolid, CCl4-induced rats, read-out: Tissue/plasma concentration ratio, Brain
[10] = brain, iv, 25 mg/kg, i.v. 25 mg/kg linezolid, control rats, read-out: Tissue/plasma concentration ratio, Brain
[11] = brain, oral, 63 mg/kg, i.g. 63 mg/kg linezolid, 5/6 Nx rats, read-out: Tissue/plasma concentration ratio, Brain
[12] = brain, oral, 63 mg/kg, i.g. 63 mg/kg linezolid, CCl4-induced rats, read-out: Tissue/plasma concentration ratio, Brain
[13] = brain, oral, 63 mg/kg, i.g. 63 mg/kg linezolid, control rats, read-out: Tissue/plasma concentration ratio, Brain
[14] = heart, iv, 25 mg/kg, i.v. 25 mg/kg linezolid, 5/6 Nx rats, read-out: Tissue/plasma concentration ratio, Heart
[15] = heart, iv, 25 mg/kg, i.v. 25 mg/kg linezolid, CCl4-induced rats, read-out: Tissue/plasma concentration ratio, Heart
[16] = heart, iv, 25 mg/kg, i.v. 25 mg/kg linezolid, control rats, read-out: Tissue/plasma concentration ratio, Heart
[17] = heart, oral, 63 mg/kg, i.g. 63 mg/kg linezolid, CCl4-induced rats, read-out: Tissue/plasma concentration ratio, Heart
[18] = heart, oral, 63 mg/kg, i.g. 63 mg/kg linezolid, control rats, read-out: Tissue/plasma concentration ratio, Heart
[19] = heart, oral, 63 mg/kg, i.g. 63 mg/kg linezolid, 5/6 Nx rats, read-out: Tissue/plasma concentration ratio, Heart
[20] = kidney, iv, 25 mg/kg, i.v. 25 mg/kg linezolid, 5/6 Nx rats, read-out: Tissue/plasma concentration ratio, Kidney
[21] = kidney, iv, 25 mg/kg, i.v. 25 mg/kg linezolid, control rats, read-out: Tissue/plasma concentration ratio, Kidney
[22] = kidney, oral, 63 mg/kg, i.g. 63 mg/kg linezolid, CCl4-induced rats, read-out: Tissue/plasma concentration ratio, Kidney
[23] = kidney, oral, 63 mg/kg, i.g. 63 mg/kg linezolid, 5/6 Nx rats, read-out: Tissue/plasma concentration ratio, Kidney
[24] = kidney, oral, 63 mg/kg, i.g. 63 mg/kg linezolid, control rats, read-out: Tissue/plasma concentration ratio, Kidney
[25] = liver (homogenate) relative to plasma, iv, 25 mg/kg, i.v. 25 mg/kg linezolid, 5/6 Nx rats, read-out: Tissue/plasma concentration ratio, Liver
[26] = liver (homogenate) relative to plasma, iv, 25 mg/kg, i.v. 25 mg/kg linezolid, control rats, read-out: Tissue/plasma concentration ratio, Liver
[27] = liver, oral, 63 mg/kg, i.g. 63 mg/kg linezolid, 5/6 Nx rats, read-out: Tissue/plasma concentration ratio, Liver
[28] = liver, oral, 63 mg/kg, i.g. 63 mg/kg linezolid, CCl4-induced rats, read-out: Tissue/plasma concentration ratio, Liver
[29] = liver, oral, 63 mg/kg, i.g. 63 mg/kg linezolid, control rats, read-out: Tissue/plasma concentration ratio, Liver
[30] = lung, iv, 25 mg/kg, i.v. 25 mg/kg linezolid, 5/6 Nx rats, read-out: Tissue/plasma concentration ratio, Lung
[31] = lung, iv, 25 mg/kg, i.v. 25 mg/kg linezolid, CCl4-induced rats, read-out: Tissue/plasma concentration ratio, Lung
[32] = lung, iv, 25 mg/kg, i.v. 25 mg/kg linezolid, control rats, read-out: Tissue/plasma concentration ratio, Lung
[33] = lung, oral, 63 mg/kg, i.g. 63 mg/kg linezolid, 5/6 Nx rats, read-out: Tissue/plasma concentration ratio, Lung
[34] = lung, oral, 63 mg/kg, i.g. 63 mg/kg linezolid, CCl4-induced rats, read-out: Tissue/plasma concentration ratio, Lung
[35] = lung, oral, 63 mg/kg, i.g. 63 mg/kg linezolid, control rats, read-out: Tissue/plasma concentration ratio, Lung
[36] = small intestine, iv, 25 mg/kg, i.v. 25 mg/kg linezolid, 5/6 Nx rats, read-out: Tissue/plasma concentration ratio, Small intestine
[37] = small intestine, iv, 25 mg/kg, i.v. 25 mg/kg linezolid, CCl4-induced rats, read-out: Tissue/plasma concentration ratio, Small intestine
[38] = small intestine, iv, 25 mg/kg, i.v. 25 mg/kg linezolid, control rats, read-out: Tissue/plasma concentration ratio, Small intestine
[39] = small intestine, oral, 63 mg/kg, i.g. 63 mg/kg linezolid, 5/6 Nx rats, read-out: Tissue/plasma concentration ratio, Small intestine
[40] = small intestine, oral, 63 mg/kg, i.g. 63 mg/kg linezolid, CCl4-induced rats, read-out: Tissue/plasma concentration ratio, Small intestine
[41] = small intestine, oral, 63 mg/kg, i.g. 63 mg/kg linezolid, control rats, read-out: Tissue/plasma concentration ratio, Small intestine

CC(=O)NC[C@H]1CN(c2ccc(N3CCOCC3)c(F)c2)C(=O)O1 [Linezolid]
substrate for OCT2 [1]: not a substrate
administered dose excreted in the urine as the parent drug [2]: 35%
apparent volume of distribution (Vd) [2]: 40 to 50 L
elimination half-life (t1/2) [2]: 5 to 7 h
total clearance (CL) [2]: 80 mL/min
median plasma concentration ([2]; controls without liver cirrhosis): 2.70 mg/L
mean recovery of linezolid radioactivity in excreta ([2]; healthy volunteers): 93.8%
radioactivity excreted in the feces ([2]; healthy volunteers): 9.9%
radioactivity excreted in the urine ([2]; healthy volunteers): 83.9%
share of dosed linezolid in the urine ([2]; humans): more than 30%
CL ([2]; patient with acute-on-chronic liver failure): 1.54 L/h
median plasma concentration ([2]; patients with liver cirrhosis): 20.6 mg/L
median trough concentration ([2]; patients with mild hepatic impairment): 5.51 mg/L
median trough concentration ([2]; patients with moderate hepatic impairment): 6.70 mg/L
median trough concentration ([2]; patients with severe hepatic impairment): 20.7 mg/L
CL ([2]; patients without concomitant liver failure): 6.26 L/h
AUC0-24 [2, 7]: 513.1 to 994.6 µg·h/mL
trough concentration [2, 7]: 14.4 to 35.6 mg/L
Kp at 0.5 h [3, 8]: 0.12 ± 0.04
Kp at 0.5 h [3, 9]: 0.16 ± 0.12
Kp at 0.5 h [3, 10]: 0.11 ± 0.02
Kp at 1 h [3, 8]: 0.15 ± 0.01
Kp at 1 h [3, 9]: 0.12 ± 0.03
Kp at 1 h [3, 10]: 0.12 ± 0.02
Kp at 4 h [3, 8]: 0.13 ± 0.04
Kp at 4 h [3, 9]: 0.08 ± 0.01
Kp at 0.5 h [3, 11]: 0.17 ± 0.06
Kp at 0.5 h [3, 12]: 0.1 ± 0.01
Kp at 0.5 h [3, 13]: 0.15 ± 0.02
Kp at 1 h [3, 11]: 0.16 ± 0.03
Kp at 1 h [3, 12]: 0.09 ± 0.02
Kp at 1 h [3, 13]: 0.03 ± 0.002
Kp at 4 h [3, 11]: 0.18 ± 0.06
Kp at 4 h [3, 12]: 0.07 ± 0.04
Kp at 4 h [3, 13]: 0.06 ± 0.03
Kp at 0.5 h [3, 14]: 0.85 ± 0.04
Kp at 0.5 h [3, 15]: 0.63 ± 0.05
Kp at 0.5 h [3, 16]: 0.5 ± 0.09
Kp at 1 h [3, 14]: 0.91 ± 0.04
Kp at 1 h [3, 15]: 0.67 ± 0.05
Kp at 1 h [3, 16]: 0.4 ± 0.07
Kp at 4 h [3, 14]: 0.75 ± 0.13
Kp at 4 h [3, 15]: 0.67 ± 0.09
Kp at 4 h [3, 16]: 0.13 ± 0.1
Kp at 0.5 h [3, 17]: 0.64 ± 0.14
Kp at 0.5 h [3, 18]: 0.68 ± 0.06
Kp at 1 h [3, 19]: 0.88 ± 0.12
Kp at 1 h [3, 17]: 0.54 ± 0.18
Kp at 1 h [3, 18]: 0.24 ± 0.06
Kp at 4 h [3, 19]: 0.96 ± 0.47
Kp at 4 h [3, 17]: 0.61 ± 0.03
Kp at 4 h [3, 18]: 0.47 ± 0.15
Kp at 4 h ([3]; kidney (homogenate) relative to plasma, iv, 25 mg/kg, i.v. 25 mg/kg linezolid, 5/6 Nx rats, read-out: Tissue/plasma concentration ratio, Kidney): 1 ± 0.23
Kp at 0.5 h [3, 20]: 0.97 ± 0.12
Kp at 0.5 h ([3]; kidney, iv, 25 mg/kg, i.v. 25 mg/kg linezolid, CCl4-induced rats, read-out: Tissue/plasma concentration ratio, Kidney): 1.28 ± 0.56
Kp at 0.5 h [3, 21]: 0.64 ± 0.36
Kp at 1 h [3, 20]: 0.92 ± 0.18
Kp at 1 h [3, 21]: 0.62 ± 0.52
Kp at 4 h [3, 21]: 0.84 ± 0.14
Kp at 0.5 h [3, 22]: 0.85 ± 0.16
Kp at 1 h [3, 23]: 0.94 ± 0.18
Kp at 1 h [3, 22]: 1.18 ± 0.22
Kp at 1 h [3, 24]: 0.42 ± 0.06
Kp at 4 h [3, 23]: 0.97 ± 0.25
Kp at 4 h [3, 22]: 1.11 ± 0.17
Kp at 4 h [3, 24]: 0.75 ± 0.15
Kp at 0.5 h [3, 25]: 1.24 ± 0.21
Kp at 0.5 h ([3]; liver (homogenate) relative to plasma, iv, 25 mg/kg, i.v. 25 mg/kg linezolid, CCl4-induced rats, read-out: Tissue/plasma concentration ratio, Liver): 1.32 ± 0.36
Kp at 0.5 h [3, 26]: 1.22 ± 0.46
Kp at 1 h [3, 25]: 1.11 ± 0.34
Kp at 1 h [3, 26]: 0.6 ± 0.38
Kp at 4 h ([3]; liver, iv, 25 mg/kg, i.v. 25 mg/kg linezolid, 5/6 Nx rats, read-out: Tissue/plasma concentration ratio, Liver): 1.39 ± 0.4
Kp at 4 h ([3]; liver, iv, 25 mg/kg, i.v. 25 mg/kg linezolid, CCl4-induced rats, read-out: Tissue/plasma concentration ratio, Liver): 1.19 ± 0.85
Kp at 4 h ([3]; liver, iv, 25 mg/kg, i.v. 25 mg/kg linezolid, control rats, read-out: Tissue/plasma concentration ratio, Liver): 1.3 ± 0.36
Kp at 0.5 h [3, 27]: 1.25 ± 0.6
Kp at 0.5 h [3, 28]: 1.06 ± 0.44
Kp at 0.5 h [3, 29]: 1.64 ± 0.75
Kp at 1 h [3, 27]: 1.37 ± 0.41
Kp at 1 h [3, 28]: 1.19 ± 0.18
Kp at 1 h [3, 29]: 0.78 ± 0.14
Kp at 4 h [3, 27]: 1 ± 0.11
Kp at 4 h [3, 28]: 0.93 ± 0.31
Kp at 4 h [3, 29]: 1.06 ± 0.16
Kp at 0.5 h [3, 30]: 0.87 ± 0.03
Kp at 0.5 h [3, 31]: 0.55 ± 0.34
Kp at 0.5 h [3, 32]: 0.42 ± 0.25
Kp at 1 h [3, 30]: 0.91 ± 0.08
Kp at 1 h [3, 31]: 0.66 ± 0.08
Kp at 1 h [3, 32]: 0.25 ± 0.18
Kp at 4 h [3, 30]: 0.74 ± 0.2
Kp at 4 h [3, 31]: 0.85 ± 0.14
Kp at 4 h [3, 32]: 0.45 ± 0.46
Kp at 0.5 h [3, 33]: 0.86 ± 0.38
Kp at 0.5 h [3, 34]: 0.68 ± 0.16
Kp at 0.5 h [3, 35]: 0.67 ± 0.13
Kp at 1 h [3, 33]: 0.94 ± 0.18
Kp at 1 h [3, 34]: 0.66 ± 0.05
Kp at 1 h [3, 35]: 0.07 ± 0.03
Kp at 4 h [3, 33]: 0.82 ± 0.09
Kp at 4 h [3, 34]: 0.6 ± 0.04
Kp at 4 h [3, 35]: 0.46 ± 0.15
Kp at 0.5 h [3, 36]: 1.19 ± 0.31
Kp at 0.5 h [3, 37]: 0.66 ± 0.05
Kp at 0.5 h [3, 38]: 0.42 ± 0.21
Kp at 1 h [3, 36]: 0.77 ± 0.34
Kp at 1 h [3, 37]: 0.69 ± 0.05
Kp at 1 h [3, 38]: 0.21 ± 0.01
Kp at 4 h [3, 36]: 0.73 ± 0.07
Kp at 4 h [3, 37]: 0.71 ± 0.09
Kp at 4 h [3, 38]: 0.47 ± 0.42
Kp at 0.5 h [3, 39]: 2.48 ± 0.76
Kp at 0.5 h [3, 40]: 0.93 ± 0.26
Kp at 0.5 h [3, 41]: 0.35 ± 0.21
Kp at 1 h [3, 39]: 1.28 ± 0.29
Kp at 1 h [3, 40]: 0.9 ± 0.09
Kp at 1 h [3, 41]: 0.33 ± 0.22
Kp at 4 h [3, 39]: 0.9 ± 0.31
Kp at 4 h [3, 40]: 1.11 ± 0.07
Kp at 4 h [3, 41]: 0.6 ± 0.18
accumulation in brain, heart, lung, liver, kidney, or small intestinal tissues ([3]; within 4 hours after i.g. and i.v. administration, hepatic impairment or renal failure rats): did not accumulate
inhibitor of MAT1 [4]: not an inhibitor
inhibitor of OAT1 [5]: inhibitor
inhibitor of MATE2-K [6]: not an inhibitor
